Measured values published in patent publication US20080207708A1, “Oxazole and Thiazole Compounds and Their Use in the Treatment of Pge2 Mediated Disorders” (GLAXO GROUP LIMITED, priority 2005, published 2008).
Counter-ions that a name gives are not always drawn.

Columns and labels:
EP1 receptors [1] = biological target: T1, EP1 receptors (Homo sapiens, UniProt P34995); assay: Binding assay for the human prostanoid EP1 receptor (competition with [3H]-PGE2); design: expressed in transfected cells; host or cells: CHO-K1 cells, membrane fraction; settings: [3H]-PGE2 competition; averages of a number of experiments; read-out: pIC50 value, binding assay for the human prostanoid EP1 receptor (converted)
T1 sequence (P34995 1-402): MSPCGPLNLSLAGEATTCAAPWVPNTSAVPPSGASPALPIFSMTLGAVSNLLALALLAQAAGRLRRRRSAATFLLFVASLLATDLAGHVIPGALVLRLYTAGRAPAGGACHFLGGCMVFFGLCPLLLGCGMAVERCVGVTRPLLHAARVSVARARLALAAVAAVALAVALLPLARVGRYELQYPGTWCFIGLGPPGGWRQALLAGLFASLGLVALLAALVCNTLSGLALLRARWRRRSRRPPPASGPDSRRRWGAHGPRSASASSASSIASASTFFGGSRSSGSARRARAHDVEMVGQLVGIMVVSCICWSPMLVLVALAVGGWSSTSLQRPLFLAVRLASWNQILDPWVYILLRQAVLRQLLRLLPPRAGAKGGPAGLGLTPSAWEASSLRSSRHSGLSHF
Procedure, shortened: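 Membranes from CHO-K1 cells stably expressing human EP1 incubated with compounds and [3H]-PGE2 (3 nM final) for 30 min at 30° C in MES buffer with EDTA and MgCl2, pH 6. Bound radioactivity measured after filtration; IC50 from nonlinear fit of specific binding inhibition.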

EP1 receptors [2] = biological target: T1, EP1 receptors; assay: human EP1 calcium mobilisation assay (CHO-K1 cells, FLIPR, PGE2); type: cell-based; design: expressed in transfected cells; host or cells: CHO-K1 cells, pCIN vector; settings: free bases or sodium salts; averages of a number of experiments; read-out: functional pKi value, human EP1 calcium mobilisation assay (converted)
Method: Briefly, the antagonist properties of compounds are assessed by their ability to inhibit the mobilisation of intracellular calcium ([Ca^2+]i) in response to activation of EP1 or EP3 receptors by the natural agonist hormone prostaglandin E2 (PGE2). Increasing concentrations of antagonist reduce the amount of calcium that a given concentration of PGE2 can mobilise. The net effect is to displace the PGE2 concentration-effect curve to higher concentrations of PGE2. The amount of calcium produced is assessed using a calcium-sensitive fluorescent dye such as Fluo-4, AM and a suitable instrument such as a Fluorimetric Imaging Plate Reader (FLIPR). Increasing amounts of [Ca^2+]i produced by receptor activation increase the amount of fluorescence produced by the dye and give rise to an increasing signal. The signal may be detected using the FLIPR instrument and the data generated may be analysed with suitable curve-fitting software.
The human EP1 or EP3 calcium mobilisation assay (hereafter referred to as ‘the calcium assay’) utilises Chinese hamster ovary-K1 (CHO-K1) cells into which a stable (pCIN; BioTechniques 20 (1996): 102-110) vector containing either EP1 or EP3 cDNA has previously been transfected. Cells are cultured in suitable flasks containing culture medium such as DMEM:F-12 supplemented with 10% v/v foetal calf serum, 2 mM L-glutamine, 0.25 mg/ml geneticin, 100 μM flurbiprofen and 10 µg/ml puromycin. For assay, cells are harvested using a proprietary reagent that dislodges cells such as Versene. Cells are re-suspended in a suitable quantity of fresh culture media for introduction into a 384-well plate. Following incubation for 24 hours at 37° C. the culture media is replaced with a medium containing Fluo-4 and the detergent pluronic acid, and a further incubation takes place. Concentrations of compounds are then added to the plate in order to construct concentration-effect curves. This may be performed on the FLIPR in order to assess the agonist properties of the compounds. Concentrations of PGE2 are then added to the plate in order to assess the antagonist properties of the compounds. The data so generated may be analysed by means of a computerised curve-fitting routine. The concentration of compound that elicits a half-maximal inhibition of the calcium mobilisation induced by PGE2 (pIC50) may then be estimated.

Row | SMILES | IC50 (EP1 receptors [1]) | Ki (EP1 receptors [2])
1 | CC(C)COc1ccc(Cl)cc1Cc1nc(NC(=O)OC(C)(C)C)cs1 [Example 111, 1,1-Dimethylethyl [2-({5-chloro-2-[(2-methylpropyl)oxy]phenyl}methyl)-1,3-thiazol-4-yl]carbamate] | ≤ 1000 nM | < 1000 nM
2 | O=C(Nc1csc(Cc2cc(Cl)ccc2OCc2ccccc2)n1)c1ccc(CO)cc1 [Example 112, N-[2-({5-chloro-2-[(phenylmethyl)oxy]phenyl}methyl)-1,3-thiazol-4-yl]-4-(hydroxymethyl)benzamide] | ≤ 1000 nM | > 1000 nM
3 | O=C(Nc1csc(Cc2cc(Cl)ccc2OCc2ccccc2)n1)c1ccc(CN2CCCCC2)cc1 [Example 113, N-[2-({5-Chloro-2-[(phenylmethyl)oxy]phenyl}methyl)-1,3-thiazol-4-yl]-4-(1-piperidinylmethyl)benzamide] | ≤ 1000 nM | < 1000 nM
4 | CN1CCN(Cc2ccc(C(=O)Nc3csc(Cc4cc(Cl)ccc4OCc4ccccc4)n3)cc2)CC1 [Example 114, N-[2-({5-chloro-2-[(phenylmethyl)oxy]-phenyl}methyl)-1,3-thiazol-4-yl]-4-[(4-methyl-1-piperazinyl)methyl]-benzamide] | ≤ 1000 nM | < 1000 nM
5 | CN1CCN(CCc2ccc3nc(-c4csc(Cc5cc(Cl)ccc5OCc5ccccc5)n4)[nH]c3c2)CC1 [Example 115, 2-[2-({5-chloro-2-[(phenylmethyl)oxy]-phenyl}methyl)-1,3-thiazol-4-yl]-5-[2-(4-methyl-1-piperazinyl)ethyl]-1H-benzimidazole] | ≤ 31.6 nM | < 1000 nM
6 | CC(C)COc1ccc(Cl)cc1Cc1nc(-c2nc3ccc(CCN(C)C)cc3[nH]2)cs1 [Example 116, (2-{2-[2-({5-Chloro-2-[(2-methylpropyl)oxy]-phenyl}methyl)-1,3-thiazol-4-yl]-1H-benzimidazol-5-yl}ethyl)dimethylamine] | ≤ 31.6 nM | < 1000 nM
7 | CC(C)COc1ccc(Cl)cc1Cc1nc(-c2nc3ccc(CCN4CCN(C)CC4)cc3[nH]2)cs1 [Example 117, 2-[2-({5-Chloro-2-[(2-methylpropyl)oxy]phenyl}-methyl)-1,3-thiazol-4-yl]-5-(2-(4-methyl-1-piperazinyl)ethyl]-1H-benzimidazole] | ≤ 31.6 nM | < 1000 nM
8 | CN(C)Cc1ccc(NC(=O)c2csc(Cc3cc(Cl)ccc3OCc3ccccc3)n2)cc1 [Example 118, 2-({5-Chloro-2-[(phenylmethyl)oxy]phenyl}methyl)-N-{4-[(dimethylamino)methyl]phenyl}-1,3-thiazole-4-carboxamide hydrochloride] | ≤ 1000 nM | > 1000 nM
9 | O=C(Nc1ccc(CN2CCCC2)cc1)c1csc(Cc2cc(Cl)ccc2OCc2ccccc2)n1 [Example 119, 2-({5-Chloro-2-[(phenylmethyl)oxy]phenyl}-methyl)-N-[4-(1-pyrrolidinylmethyl)phenyl]-1,3-thiazole-4-carboxamidehydrochloride] | ≤ 1000 nM | > 1000 nM
10 | O=C(Nc1ccc(CN2CCOCC2)cc1)c1csc(Cc2cc(Cl)ccc2OCc2ccccc2)n1 [Example 120, 2-({5-Chloro-2-[(phenylmethyl)oxy]phenyl}-methyl)-N-[4-(4-morpholinylmethyl)phenyl]-1,3-thiazole-4-carboxamidehydrochloride] | ≤ 1000 nM | > 1000 nM
11 | O=C(Nc1ccc(CN2CCCCC2)cc1)c1csc(Cc2cc(Cl)ccc2OCc2ccccc2)n1 [Example 121, 2-({5-Chloro-2-[(phenylmethyl)oxy]phenyl}-methyl)-N-[4-(1-piperidinylmethyl)phenyl]-1,3-thiazole-4-carboxamidehydrochloride] | ≤ 1000 nM | > 1000 nM
12 | CC(C)COc1ccc(Cl)cc1Cc1nc(-c2nc3ccc(CN(C)C)cc3[nH]2)cs1 [Example 124, ({2-[2-({5-Chloro-2-[(2-methylpropyl)oxy]phenyl}-methyl)-1,3-thiazol-4-yl]-1H-benzimidazol-5-yl}methyl)dimethylaminehydrochloride] | ≤ 31.6 nM | < 1000 nM
13 | CC(C)COc1ccc(Cl)cc1Cc1nc(-c2nc3ccc(CN4CCOCC4)cc3[nH]2)cs1 [Example 125, 2-[2-({5-Chloro-2-[(2-methylpropyl)oxy]phenyl}-methyl)-1,3-thiazol-4-yl]-5-(4-morpholinylmethyl)-1H-benzimidazolehydrochloride] | ≤ 31.6 nM | < 1000 nM
14 | CNCc1ccc2nc(-c3csc(Cc4cc(Cl)ccc4OCC(C)C)n3)[nH]c2c1 [Example 126, ({2-[2-({5-Chloro-2-[(2-methylpropyl)oxy]phenyl}-methyl)-1,3-thiazol-4-yl]-1H-benzimidazol-5-yl}methyl)methylaminehydrochloride] | ≤ 31.6 nM | < 1000 nM
15 | CC(=O)Nc1csc(Cc2cc(Cl)ccc2OCc2ccccc2)n1 [Example 127, N-[2-({5-Chloro-2-[(phenylmethyl)oxy]phenyl}methyl)-1,3-thiazol-4-yl]acetamide] | ≤ 1000 nM | > 1000 nM
16 | CCC(=O)Nc1csc(Cc2cc(Cl)ccc2OCc2ccccc2)n1 [Example 128] | ≤ 1000 nM | > 1000 nM
17 | CC(C)C(=O)Nc1csc(Cc2cc(Cl)ccc2OCc2ccccc2)n1 [Example 129, N-[2-({5-Chloro-2-[(phenylmethyl)oxy]phenyl}methyl)-1,3-thiazol-4-yl]-2-methylpropanamide] | ≤ 1000 nM | < 1000 nM
18 | O=C(Cc1ccccc1)Nc1csc(Cc2cc(Cl)ccc2OCc2ccccc2)n1 [Example 130, N-[2-({5-Chloro-2-[(phenylmethyl)oxy]phenyl}methyl)-1,3-thiazol-4-yl]-2-phenylacetamide] | ≤ 1000 nM | < 1000 nM
19 | Clc1ccc(OCc2ccccc2)c(Cc2nc(-c3nc4ccccc4[nH]3)cs2)c1 [Example 131, 2-[2-({5-Chloro-2-[(phenylmethyl)oxy]phenyl}methyl)-1,3-thiazol-4-yl]-1H-benzimidazole] | ≤ 1000 nM | < 1000 nM
20 | CC(C)COc1ccc(Cl)cc1Cc1nc(-c2nc3ncccc3[nH]2)cs1 [Example 132, 2-[2-({5-Chloro-2-[(2-methyl-propyl)oxy]-phenyl}methyl)-1,3-thiazol-4-yl]-1H-imidazo[4,5-b]pyridine] | ≤ 31.6 nM | < 1000 nM
21 | Clc1ccc(OCc2ccccc2)c(Cc2nc(-c3nc4ncccc4[nH]3)cs2)c1 [Example 133, 2-[2-({5-Chloro-2-[(phenylmethyl)oxy]phenyl}methyl)-1,3-thiazol-4-yl]-1H-imidazo[4,5-b]pyridine] | ≤ 1000 nM | < 1000 nM
22 | Clc1ccc(OCc2ccccc2)c(Cc2nc(-c3nc4ncc(Br)cc4[nH]3)cs2)c1 [Example 134, 6-Bromo-2-[2-({5-chloro-2-[(phenylmethyl)oxy]phenyl}methyl)-1,3-thiazol-4-yl]-1H-imidazo[4,5-b]pyridine] | ≤ 1000 nM | < 1000 nM
23 | CC(C)COc1ccc(Cl)cc1Cc1nc(-c2nc3cnccc3[nH]2)cs1 [Example 135, 2-[2-({5-Chloro-2-[(2-methyl-propyl)oxy]-phenyl}methyl)-1,3-thiazol-4-yl]-1H-imidazo[4,5-c]pyridinehydrochloride] | ≤ 31.6 nM | ≤ 31.6 nM
24 | CC(C)COc1ccc(Cl)cc1Cc1nc(-c2nc3nccnc3[nH]2)cs1 [Example 136, 2-[2-({5-Chloro-2-[(2-methyl-propyl)oxy]-phenyl}methyl)-1,3-thiazol-4-yl]-1H-imidazo[4,5-b]pyrazinehydrochloride] | ≤ 31.6 nM | ≤ 31.6 nM
